Results as given in patent US20210059984A1, “METHOD AND COMPOSITION FOR REVERSING COGNITIVE IMPAIRMENTS AND LOSS USING SGLT2 INHIBITORS” (TAISHO PHARMACEUTICAL CO., LTD., priority 2019, published 2021).

Columns and labels:
diabetic patients = conditions: mean age 77 years, 12-month administration; cited from earlier work
SGLT2 = molecular target: T1, SGLT2 (Homo sapiens, UniProt P31639); conditions: among the three FDA approved drugs; cited from earlier work
T1 sequence (P31639 1-672): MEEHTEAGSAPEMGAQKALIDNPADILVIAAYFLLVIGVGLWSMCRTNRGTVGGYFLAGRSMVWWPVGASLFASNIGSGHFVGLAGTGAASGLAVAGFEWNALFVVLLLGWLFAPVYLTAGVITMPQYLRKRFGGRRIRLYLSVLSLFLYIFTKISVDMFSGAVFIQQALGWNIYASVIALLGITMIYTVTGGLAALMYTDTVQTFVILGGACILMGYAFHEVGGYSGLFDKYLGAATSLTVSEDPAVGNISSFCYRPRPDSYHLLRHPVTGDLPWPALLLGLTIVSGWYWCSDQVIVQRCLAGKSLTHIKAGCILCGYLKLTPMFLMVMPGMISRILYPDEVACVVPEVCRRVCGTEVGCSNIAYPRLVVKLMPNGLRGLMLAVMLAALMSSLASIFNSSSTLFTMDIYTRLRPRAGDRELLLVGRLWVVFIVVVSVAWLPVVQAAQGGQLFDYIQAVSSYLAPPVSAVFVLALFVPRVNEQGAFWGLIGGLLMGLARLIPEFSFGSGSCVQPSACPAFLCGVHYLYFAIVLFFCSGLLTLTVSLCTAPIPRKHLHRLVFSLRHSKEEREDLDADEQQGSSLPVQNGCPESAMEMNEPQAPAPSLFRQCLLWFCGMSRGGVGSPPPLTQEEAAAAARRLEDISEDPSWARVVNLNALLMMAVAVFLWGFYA

diabetic mice = conditions: cited from earlier work
T2DN rats [1] = test: Autoregulation of cerebral blood flow (laser Doppler flowmetry); format: in vivo, rat; conditions: aged T2DN rats, 20 mg/kg/day via drinking water for 4 months; FIG. 5
Protocol: Measurements of arterial pressure and cortical blood flow (CBF) were performed by inserting cannulas in the femoral artery and vein for drug delivery and monitoring the mean arterial pressure (MAP). A closed cranial window was prepared on both sides of the brain by thinning the bone using a dental drill until the vessels on the surface of the brain could be visualized. Cortical blood flow (CBF) was measured using a laser Doppler flowmeter (LDF). Unless otherwise indicated, all experiments using SGLT2 inhibitors were performed on 18-month old male Sprague Dawley (SD) and 14-month old […] rats, a genetic rat model of type II diabetes. […] Next the effect of SGLT2 inhibitor was examined in the treatment of impaired myogenic response and autoregulation of cerebral blood flow was determined. […] The myogenic reactivity in response to an elevation in perfusion pressure was calculated by the formula: Dpressure/ID60 mmHg×100(%). […] After a 10-min equilibration period, baseline CBF was measured at 100 mmHg. […] CBF was measured at each step when the MAP reached a steady state. The infusion of phenylephrine was then stopped which allowed MAP to return to 100 mmHg, and CBF was re-recorded. […] Percentage change of CBF was calculated by the formula: [(CBFMAP-CBFbaseline)/CBFbaseline]×100(%).

T2DN rats [2] = test: Plasma glucose and HbA1c levels in aged diabetic T2DN rats during drug treatment; format: in vivo, rat; conditions: 20 mg/kg/day via drinking water, from 14 months of age for 4 months, FIG. 3
Protocol: (§1) Unless otherwise indicated, all experiments using SGLT2 inhibitors were performed on 18-month old male Sprague Dawley (SD) and 14-month old […] rats, a genetic rat model of type II diabetes. Outbred SD rats purchased from Charles River were used as a nondiabetic control rat since identical genotypes are not necessary for this study. […] rats were prepared according to Diabetes, vol. 53, March 2004, pages 735-742. […] Treatment with an SGLT2 inhibitor began at 14-months of age and lasted for 4 months to determine whether control of hyperglycemia can slow the progression of cognitive dysfunction. Rats received either a vehicle or the SGLT2 inhibitor, luseogliflozin, at a dose of 20 mg/kg/day via drinking water. The SD rats were used as control. The levels of plasma glucose and HbA1c were measured by drawing a drop of blood from the tail vein during drug treatment and using traditional analytical methods to determine the concentration of plasma glucose and HbA1c.

T2DN rats [3] = test: Functional hyperemia (neurovascular coupling) in response to whisker stimulation; format: in vivo, rat; conditions: old diabetic T2DN rats, whisker stimulation 10 Hz for 60 seconds; FIG. 7
Protocol: as §1, with “[…] In these studies, neurovascular coupling (NVC) responses were investigated prior to cerebral autoregulation study. […] Cortical blood flow (CBF) was measured using a laser Doppler flowmeter ([…] probe was placed above somatosensory cortex for the recording” for “The levels”, “LDF signal change (CBFchange). Percentage changes in CBF at various perfusion pressures vs. CBF at perfusion pressure of 100 mmHg” for “plasma glucose and HbA1c”, “determined in response” for “measured by drawing a drop of blood from the tail vein during drug treatment and using traditional analytical methods”, “whisker stimulation.” for “determine the concentration of plasma glucose and HbA1c.”

T2DN rats [4] = test: Blood-brain barrier leakage by Evans blue dye; format: in vivo, rat; conditions: aged T2DN rats, long-term treatment, MAP 180 mmHg for 1 hour; FIG. 6
Protocol: Unless otherwise indicated, all experiments using SGLT2 inhibitors were performed on 18-month old male Sprague Dawley (SD) and 14-month old […] rats, a genetic rat model of type II diabetes. Outbred SD rats purchased from Charles River were used as a nondiabetic control rat since identical genotypes are not necessary for this study. […] rats were prepared according to Diabetes, vol. 53, March 2004, pages 735-742. […] Treatment with an SGLT2 inhibitor began at 14-months of age and lasted for 4 months to determine whether control of hyperglycemia can slow the progression of cognitive dysfunction. Rats received either a vehicle or the SGLT2 inhibitor, luseogliflozin, at a dose of 20 mg/kg/day via drinking water. The SD rats were used as control. To determine the impact of higher cerebral blood flow with extended middle cerebral artery diameters on the brain, the brains of SGLT2-treated and untreated rats were assessed for blood brain leakage (BBB). Evans blue (EB) dye was used to compare the degree of BBB leakage. EB was injected via the femoral vein, and MAP was maintained at 180 mmHg for 1 hour by adjusting the infusion rate of phenylephrine. […] The brain was then homogenized and BBB leakage was quantitated using a fluorescent microplate reader at excitation and emission wavelengths of 620 nm and 680 nm.

T2DN rats [5] = test: Eight-arm radial water maze test of spatial learning and memory; format: in vivo, rat; conditions: DM (T2DN) rats, tests 2, 24, 48 and 72 hours post training; FIG. 8
Protocol: Unless otherwise indicated, all experiments using SGLT2 inhibitors were performed on 18-month old male Sprague Dawley (SD) and 14-month old […] rats, a genetic rat model of type II diabetes. Outbred SD rats purchased from Charles River were used as a nondiabetic control rat since identical genotypes are not necessary for this study. […] rats were prepared according to Diabetes, vol. 53, March 2004, pages 735-742. […] Treatment with an SGLT2 inhibitor began at 14-months of age and lasted for 4 months to determine whether control of hyperglycemia can slow the progression of cognitive dysfunction. Rats received either a vehicle or the SGLT2 inhibitor, luseogliflozin, at a dose of 20 mg/kg/day via drinking water. The SD rats were used as control. […] The rats are trained to identify a platform marked with a visual cue in one of the 8 arms of the pool to escape. Four memory trials are performed at 2, 24, 48 and 72 hrs after the training, which consist of 4 consecutive swims. The time to reach the platform (latency), the number of errors, distance traveled and swim speed were recorded (Nat Protoc 1: 1671-1679, 2006). Control, DM and DM luseogliflozin treated rats were trained on the first day to recognize the platform located in one of the eight arms to escape, and repeated tests were performed 2, 24, 48, and 72 hours post training. The time taken by the rats to reach the platform was recorded. […]

[6] = system: middle cerebral artery of T2DN rats; test: Pressure-induced myogenic response of isolated middle cerebral artery; format: ex vivo, rat; conditions: aged T2DN rats, 20 mg/kg/day via drinking water for 4 months; FIG. 4
From the text: To measure the myogenic response of cerebral arteries, a section of the brain containing middle cerebral artery (MCA) was dissected and immediately placed in Tyrode's solution. A branch of the MCA was microdissected and cannulated with glass pipettes in a pressure myograph chamber filled with a physiologic salt solution (PSS). The vessels were equilibrated at a transmural pressure of 40 mmHg to develop spontaneous tone. After preconditioning, the inner diameter (ID) of MCA in response to intraluminal pressures ranging from 40 to 180 mmHg in steps of 20 mmHg was measured to access the myogenic response. Then, a passive pressure-diameter relationship was determined by replacing the bath solution with calcium-free PSS. The myogenic reactivity in response to an elevation in perfusion pressure was calculated by the formula: IDpressure/D40 mmHg×100(%). […] Next the effect of SGLT2 inhibitor was examined in the treatment of impaired myogenic response and autoregulation of cerebral blood flow was determined. […] The myogenic reactivity in response to an elevation in perfusion pressure was calculated by the formula: Dpressure/ID60 mmHg×100(%). […] After a 10-min equilibration period, baseline CBF was measured at 100 mmHg. […] CBF was measured at each step when the MAP reached a steady state. The infusion of phenylephrine was then stopped which allowed MAP to return to 100 mmHg, and CBF was re-recorded. […]

Row | Structure (SMILES) | cognitive functions (cognitive performance) (diabetic patients) | selectivity for SGLT2 compared to SGLT1 (SGLT2) | cognitive function (diabetic mice) | cerebral blood flow on elevation of MAP (autoregulation) (T2DN rats [1]) | levels of HbA1c (T2DN rats [2]) | levels of plasma glucose (T2DN rats [2]) | functional hyperemia in response to whisker stimulation (T2DN rats [3]) | blood brain barrier damage (Evans blue leakage) (T2DN rats [4]) | escape time (time to reach the platform), cognitive performance (T2DN rats [5]) | diameters of middle cerebral artery upon exposure to higher perfusion pressures (myogenic response) [6]
1 | Cc1ccc([C@@H]2O[C@H](CO)[C@@H](O)[C@H](O)[C@H]2O)cc1Cc1ccc(-c2ccc(F)cc2)s1 [canagliflozin] | no worsening of their cognitive functions | least selective |  |  |  |  |  |  |  | 
2 | OC[C@H]1O[C@@H](c2ccc(Cl)c(Cc3ccc(O[C@H]4CCOC4)cc3)c2)[C@H](O)[C@@H](O)[C@@H]1O [empagliflozin] | no worsening of their cognitive functions | greatest selectivity | cognitive function improving effect |  |  |  |  |  |  | 
3 | CCOc1ccc(Cc2cc([C@@H]3S[C@H](CO)[C@@H](O)[C@H](O)[C@H]3O)c(OC)cc2C)cc1 [luseogliflozin] |  |  |  | restored to normal levels | reduced both the levels of plasma glucose and HbA1c to near normal | reduced both the levels of plasma glucose and HbA1c to near normal | restored | completely reversed the blood brain barrier damage | reduced escape time similar to normal rats | completely reversed the increase in the diameters of middle cerebral artery
